{"source": "patent US5118601A", "about": "“Method of screening purine nucleoside compounds or analogs for the ability to enhance the cellular synthesis and release of adenosine” (The Regents of the University of California, priority 1989, dated 1992)", "key": {"[1]": {"tested_on": "human splenic lymphoblast cell line (WI-L2)", "experiment": "Adenosine release by WI-L2 lymphoblasts during ATP breakdown (2-deoxyglucose)", "assay_type": "cell-based", "protocol": "The history and properties of the cell line have been described by Hershfield et al. in Science, Vol. 197, p. 1284, 1977.\nCatabolism of cellular ATP stores was stimulated by adding either 2-deoxyglucose or a calcium ionophore. At various times, the amount of adenosine released by the cells into the supernatant, or the amount of nucleotides remaining in the cells, was determined by mixing 3 μl of chilled 4.4N perchloric acid with 300 μl of supernatants, or by adding 300 μl of chilled 0.4N perchloric acid to the cell collected as pellets and centrifuging the mixtures at 500×G for 10 minutes at 4° C. […] 1245, 1975. Following centrifugation at 1500×G for three minutes at 4° C., the aqueous phase is removed and frozen at -20° C. until assayed for adenosine, inosine, or for nucleotides. Adenosine was evaluated isocratically on a C-18 microBondapak reverse phase column equilibrated with 4 millimolar potassium phosphate, (pH 3.4):acetonitrile 60% in water (95:5 v/v) buffer. Adenosine elutes at 8-10 minutes, and its identity was confirmed by its sensitivity to adenosine deaminase and by spiking with adenosine standards. The extracted samples from the cell pellet were analyzed for nucleotides by high pressure liquid chromatography on a Whatman Partisil-10 (SAX) column equilibrated with 10 millimolar potassium phosphate, pH 3.78, and eluted with a linear gradient to a 0.25 molar potassium phosphate, 0.5 molar KCl, pH 3.45. […] Peaks were quantitated by comparison with high pressure liquid chromatography analysis of suitable standards.\nCells were grown to about 0.5×10^6 cells/ml (mid-log phase) in FIG. 2 and to about 1.0×10^6 cells/ml (early stationary phase) in FIGS. 7-9."}, "[2]": {"tested_on": "HPRT- neuroblastoma cells", "experiment": "Adenosine excretion by stimulated HPRT- neuroblastoma cells (calcium ionophore A23187)", "assay_type": "cell-based", "conditions": "for correction of lowered adenosine secretion of cells deficient in hypoxanthine phosphoribosyl transferase: pretreatment", "protocol": "(§1) To induce ATP catabolism, the growth medium was replaced by medium containing micromolar amounts of the calcium ionophore A23187 and 1.0 μM deoxycoformycin."}, "[3]": {"tested_on": "Mouse bone marrow-derived mast cells", "experiment": "Mast cell beta-hexosaminidase release (degranulation)", "assay_type": "cell-based", "protocol": "(§2) By preventing mast cell degranulation, it is possible to prevent or control a patient's allergic response. Bone marrow obtained from Balb/C mice femurs was cultured in a 1:1 mixture of Razin media and conditioned media, produced by co-culturing splenocytes from C57B1/6J and C3H mice in the present of Concanavalin A as described by Razin et al. in the Proc. Natl. Acad. Sci. USA 28: 2559-2561, 1981. After weekly passaging and at least 15 days in tissue culture, the resulting cells were 90% pure mast cells and 95% viable as assessed by Trypan blue exclusion. Cells exposed to ribavirin in culture were washed three times prior to use in experiments. Parallel cultures of cells grown in media alone were used as controls for pharmacologically manipulated mast cells. Cell growth was assessed by counting cells at particular time pints and comparing actual numbers of ribavirin-treated cells to numbers of cells grown in media alone.\nβ-hexosaminidase was chosen as a representative granule-associated, preformed mast cell mediator because it is easily quantitated, and its release nearly identically parallels that of histamine. Mouse bone marrow-derived mast cells were centrifuged at 200×g for 5 minutes, washed three times in Tyrode's buffer lacking divalent cations, sensitized for 30 minutes at 37° C. with anti-DNP (dinitrophenyl phosphate) IgE (1 μg/10^6 cells), and challenged with either DNP-BSA antigen ([…]/3×10^5 cells) or A23187 (10 μg/ml/3×10^5 cells) in 400 μl of complete Tyrode's buffer for 10 minutes at 37° C. Reaction mixtures were centrifuged at 200×g for 10 minutes, and supernatant and pellet β-hexasaminidase concentrations were assayed by the hydrolysis of p-nitrophenyl-β-D-glucosamide as described in Schwartz et al. in J. Immunol. […] Spontaneous β-hexosaminidase release was determined in unchallenged cells. The net % of β-hexosaminidase released is defined as follows: [formula] where [β-hex] is βhexosaminidase and super, is supernatant. When exogenous adenosine was present in reaction mixtures, it was added simultaneously with the secretagogue."}, "[4]": {"tested_on": "HPRT+ neuroblastoma cells", "experiment": "Adenosine excretion by stimulated HPRT+ neuroblastoma cells (calcium ionophore A23187)", "assay_type": "cell-based", "protocol": "as §1"}, "[5]": {"tested_on": "ischemic myocardium", "experiment": "Coronary venous adenosine during coronary artery occlusion in dogs", "assay_type": "in vivo, dog", "protocol": "FIG. 3. […] Coronary venous blood was collected into chilled 2N perchloric acid at various times before and after coronary artery occlusion. Supernatants from these extracts were neutralized with alamine and freon and evaluated by high performance liquid chromotography.\n(§3) Thirteen mongrel dogs were anesthetized with phenobarbital. […] C.V. Dis. 20; 55 (1977). […] Two of the surviving saline-treated animals fibrillated. […] The range was 4.4 to 100 μM."}, "[6]": {"tested_on": "ischemic myocardium", "experiment": "Venous inosine levels during coronary artery occlusion in dogs", "assay_type": "in vivo, dog", "conditions": "over the 60-minute assay period", "protocol": "as §3\nThat the increase in the levels of adenosine is due, at least in part, to a reduction in the amount of ATP that is converted to inosine was shown by analysis of venous blood from dogs in Example III for inosine levels."}, "[7]": {"tested_on": "ischemia-induced arrhythmias", "experiment": "Arrhythmias during myocardial ischemia in dogs (electrocardiogram)", "assay_type": "in vivo, dog", "conditions": "individual treated dogs 1-6", "protocol": "as §3\nOne consequence of myocardial ischemia is arrhythmia and the frequency of arrhythmias is related to the degree of reduced blood flow. […] Electrocardiograms recorded during ischemia of Example III were analyzed for the number of premature ventricular depolarizations (PVD) and ventricular tachycardia (VTAC) episodes."}, "[8]": {"tested_on": "patients with adenylosuccinase deficiency (autism)", "experiment": "Therapeutic trial in patients with adenylosuccinase deficiency (autism)", "assay_type": "in vivo, human", "excerpt": "Following authorization, therapeutic trials with AICA riboside were started in two patients with adenylosuccinase deficiency (autism). […] On Day 55, both patients were briefly readmitted for clinical, biochemical and psychiatric evaluation. […] Treatment was maintained until Day 71, and arrested at that date."}, "[9]": {"tested_on": "Mouse bone marrow-derived mast cells", "experiment": "Mast cell leukotriene C4 release (radioimmune assay)", "assay_type": "cell-based", "conditions": "100 μM for six days, challenged 20 minutes with A23187; control 51", "protocol": "as §2"}, "[10]": {"tested_on": "pentylene tetrazol-induced seizures", "experiment": "Pentylene tetrazol-induced seizures in the rat", "assay_type": "in vivo", "conditions": "2000 mg/kg (total dose) intraperitoneal"}, "[11]": {"tested_on": "ischemic myocardium", "experimental": "Regional myocardial blood flow was measured using radiolabelled microspheres infused into the left atrium at 5 minutes (open) and 60 minutes (hatched) of occlusion. The means plus the standard deviations are graphed. The asterisks (*) identify differences from saline-treated dogs that are significant at p<0.01.\nThirteen mongrel dogs were anesthetized with phenobarbital. The anterior coronary vein was cannulated and a blood sample was collected into 2N perchloric acid. […] Regional myocardial blood flow was measured within 15 μm radiolabelled spheres infused into the left atrium at 5 and 60 minutes during the ischemic period, as described by Heymann et al. in Prog. […] The electrocardiogram and arterial pressure were monitored throughout the period of ischemia."}, "[12]": {"tested_on": "AMP deaminase", "experiment": "AMP deaminase inhibition (14C-AMP to 14C-IMP conversion, lymphoblast lysate)", "assay_type": "biochemical, human", "conditions": "200 μM of each ribotide"}, "[13]": {"conditions": "three-hour preincubation and four-hour incubation during 2-deoxyglucose treatment"}}, "note": "Values joined by “and” are separate entries in the source; they are usually repeats but may differ in a detail not shown here. Equal values may be shown once.", "data": [{"smiles": "NC(=O)c1ncn([C@@H]2O[C@H](CO)[C@@H](O)[C@H]2O)n1", "note": "[ribavirin, 1-β-D-ribofuranosyl-1H-1,2,4-triazole-3-carboxamide, reference compound]", "values": [{"measurement": "adenosine release from lymphoblasts", "setting": "[1]; [13]", "result": "Increased in vitro adenosine release"}, {"measurement": "adenosine release from lymphoblasts", "setting": "[1]; three-hour preincubation and four-hour incubation during 2-deoxyglucose treatment, listed as ribivirin", "result": "increased adenosine release"}, {"measurement": "correction of lowered adenosine secretion of cells deficient in hypoxanthine phosphoribosyl transferase", "setting": "[2]", "result": "can be corrected"}, {"measurement": "mediator release", "setting": "[3]; 1 μM for six days", "result": "inhibits mediator release significantly"}, {"measurement": "net β-hexosaminidase release versus controls", "setting": "[3]; 1, 10, or 2 μm for six days, challenged with A23187", "result": "released significantly less"}, {"measurement": "β-hexosaminidase release compared to cells cultured in media alone", "setting": "[3]; three to seven days in 10 μM, washed, challenged with A23187, p<0.05", "result": "marked attenuation"}]}, {"smiles": "NC(=O)c1ncn([C@@H]2O[C@H](CO)[C@@H](O)[C@H]2O)c1N", "note": "[AICA riboside, 5-amino-4-imidazolecarboxamide riboside]", "values": [{"measurement": "adenosine release from lymphoblasts", "setting": "[1]; 48-hour pretreatment, 100-500 micromolar", "result": "enhances adenosine release"}, {"measurement": "adenosine release from lymphoblasts", "setting": "[1]; 18 hours preincubation before 2-deoxyglucose exposure", "result": "enhanced adenosine release"}, {"measurement": "adenosine release from lymphoblasts", "setting": "[1]; [13]", "result": "increased adenosine release"}, {"measurement": "adenosine secreted by treated cells versus control cells", "setting": "[4]; 50 μM AICA riboside, A23187 and 1.0 μM deoxycoformycin", "result": "at least twofold more adenosine"}, {"measurement": "Concentration of Adenosine", "setting": "[4]; HPRT+ cells, ionophore 0 μg/ml, AICA riboside 50 μM", "result": "< 0.01", "unit": "µM"}, {"measurement": "Concentration of Adenosine", "setting": "[2]; HPRT- cells, ionophore 0 μg/ml, AICA riboside 50 μM", "result": "< 0.01", "unit": "µM"}, {"measurement": "correction of lowered adenosine secretion of cells deficient in hypoxanthine phosphoribosyl transferase", "setting": "[2]", "result": "can be corrected"}, {"measurement": "peak coronary venous adenosine level", "setting": "[5]; at 1 minute of ischemia, saline peak 0.22 ±0.08 at 10 minutes", "result": "1.79 ± 0.35", "unit": "µM"}, {"measurement": "coronary venous adenosine level", "setting": "[5]; at 60 minutes of ischemia, saline undetectable, in µM", "result": "0.18±0.15"}, {"measurement": "adenosine washout on reperfusion", "setting": "[5]; reperfusion", "result": "significant rise"}, {"measurement": "adenosine in blood from the right atrium (systemic blood)", "setting": "[5]; systemic sampling", "result": "no detectable adenosine"}, {"measurement": "inosine levels in venous blood", "setting": "[6]", "result": "more than twofold decrease"}, {"measurement": "PVD, individual dogs", "setting": "[7]", "result": "12 EPISODES/H and 10 EPISODES/H and 4 EPISODES/H and 13 EPISODES/H and 6 EPISODES/H"}, {"measurement": "VTAC, individual dogs", "setting": "[7]", "result": "1 EPISODES/H and 0 EPISODES/H and 27 EPISODES/H"}, {"measurement": "AICA riboside in plasma and CSF", "setting": "[8]; all dosages used", "result": "could not be detected"}, {"measurement": "haematology and clinical chemistry parameters", "setting": "[8]; before and during the trial treatment", "result": "found normal"}, {"measurement": "AICA riboside in plasma", "setting": "[8]; one hour after intravenous administration, 20 mg/kg/day", "result": "undetectable"}, {"measurement": "concentration of ATP and GTP in the erythrocytes", "setting": "[8]; patients", "result": "did not influence significantly"}, {"measurement": "urinary output of succinyladenosine, SAICA riboside and uric acid", "setting": "[8]; patients", "result": "without significant effect"}, {"measurement": "β-hexosaminidase released", "setting": "[3]; 100 micromolar, A23187 1 μg/ml, 28.8% in its absence", "result": 17.6, "unit": "%"}, {"measurement": "supernatant leukotriene C4 concentration", "setting": "[9]", "result": 13, "unit": "nanograms/106 cells"}, {"measurement": "latency to seizure", "setting": "[10]", "result": "dramatic prolongation"}, {"measurement": "systemic arterial pressure and heart rate versus saline", "setting": "[11]; dog, in vivo", "result": "no significant differences"}, {"measurement": "flow to normal myocardium", "setting": "[11]; non-ischemic tissue", "result": "did not alter flow"}]}, {"smiles": "NC(=O)c1ncn([C@@H]2O[C@H](COP(=O)(O)O)[C@@H](O)[C@H]2O)c1N", "note": "[AICA ribotide]", "values": [{"measurement": "AMP deaminase inhibited", "setting": "[12]", "result": 38, "unit": "%"}]}, {"smiles": "NC(=O)c1ncn([C@@H]2O[C@H](COP(=O)(O)O)[C@@H](O)[C@H]2O)n1", "note": "[ribavirin monophosphate]", "values": [{"measurement": "AMP deaminase inhibited", "setting": "[12]", "result": 54, "unit": "%"}]}]}
